Experimental data: patent US11214803B2, “Modulators of YAP1 expression” (Ionis Pharmaceuticals, Inc., priority 2019, dated 2022)
Strand notation (5' to 3'): a small letter for the sugar, then the base; units joined by * are phosphorothioate-linked, units joined directly phosphodiester-linked; [ ] holds rarer units or linkages, { } end groups; capitals alone tell only the bases. e = 2'-O-(2-methoxyethyl) (MOE); k = constrained ethyl (cEt); [5mC] = 5-methylcytosine; d = 2'-deoxy (DNA); m = 2'-O-methyl

System: Yap1 mRNA
Test: Antisense inhibition of human Yap1 in SNU-449 cells by modified oligonucleotides, single dose (Example 5, RTS36584)
Assay type: cell-based
Summary of the method: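 Values are Yap1 mRNA as percent of untreated control cells, measured by quantitative real-time RT-PCR using RTS36584 and normalised to total RNA by RIBOGREEN. Cells were SNU-449, dosed by free uptake at 2,000 nM for approximately 48 hours.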

[1] = Table 43 experiment, SNU-449 cells, 10,000 cells per well, free uptake, 2,000 nM, approximately 48 hours, RTS36584, Yap1 mRNA normalized to RIBOGREEN, relative to untreated control cells
[2] = Table 49, Yap1 mRNA level relative to untreated control, modified oligonucleotides targeting SEQ ID NO.: 1 and 2
[3] = Table 52, Yap1 mRNA, modified oligonucleotides targeting SEQ ID NO: 1 and 2
[4] = Table 51, Yap1 mRNA remaining as percent of untreated control (UT), SNU-449 cells, single dose
[5] = Table 42 (separate experiment), SNU-449 cells, 10,000 cells per well, free uptake, 2,000 nM modified oligonucleotide, approximately 48 hours, RTS36584, normalized to RIBOGREEN, Yap1 mRNA relative to untreated control cells
[6] = Yap1 mRNA, percent of untreated control, modified oligonucleotides targeting SEQ ID NO: 1 and 2, Table 47
[7] = Table 40 (separate experiment), SNU-449 cells, 10,000 cells per well, free uptake, 2,000 nM oligonucleotide, approx. 48 hours, RTS36584, normalized to RIBOGREEN, Yap1 mRNA relative to untreated control
[8] = Table 39, SNU-449 cells, 10,000 cells per well, free uptake, 2,000 nM oligonucleotide, approx. 48 hours, RTS36584, normalized to RIBOGREEN, Yap1 mRNA relative to untreated control
[9] = Table 44 experiment, SNU-449 cells, 10,000 cells per well, free uptake, 2,000 nM, approximately 48 hours, RTS36584, Yap1 mRNA normalized to RIBOGREEN, relative to untreated control cells
[10] = Table 41, SNU-449 cells, 10,000 cells per well, free uptake, 2,000 nM modified oligonucleotide, approximately 48 hours, RTS36584, normalized to RIBOGREEN, Yap1 mRNA relative to untreated control cells
[11] = Table 50, Yap1 mRNA remaining as percent of untreated control (UT), SNU-449 cells, single dose
[12] = Table 48, Yap1 mRNA level relative to untreated control, modified oligonucleotides targeting SEQ ID NO.: 1 and 2

## 1198249 (kT*kT*dA*dT*dA*dT*dG*dG*dT*dT*dT*eT*eG*eT*kG*kT; antisense) [Compound 1198249]
[1]
  YAP1 (% UTC): 42 % UTC

## 1198359 (k[5mC]*kT*kT*dT*dA*dA*dA*dG*dT*dG*dT*dA*kT*eG*kT*e[5mC]; antisense) [Compound 1198359]
[2]
  YAP1 (% UT): 28 % UT

## 1200813 (k[5mC]*kT*kT*dT*dT*mA*d[5mC]*dA*dT*dT*dA*dG*dG*kA*kA*k[5mC]; antisense) [Compound 1200813]
[3]
  YAP1 (% UT): 58 % UT

## 1198245 (k[5mC]*kA*dG*dA*dT*dT*dT*dA*dG*dG*dA*eT*eG*e[5mC]*kA*kT; antisense) [Compound 1198245]
[1]
  YAP1 (% UTC): 46 % UTC

## 1200795 (kT*kA*kG*dA*dG*mU*dA*dT*dG*dT*dG*dG*d[5mC]*kA*kA*kT; antisense) [Compound 1200795]
[4]
  YAP1 (% UT): 30 % UT

## 1198208 (kA*kG*dA*dG*dT*dA*dT*dG*dT*dG*dG*e[5mC]*eA*eA*kT*kA; antisense) [Compound 1198208]
[5]
  YAP1 (% UTC): 25 % UTC

## 1009394 (kT*kA*kT*dA*dA*d[5mC]*dT*dG*dG*dG*d[5mC]*dA*dA*kA*kT*kT; antisense) [Compound 1009394]
[6]
  YAP1 (% UT): 73 % UT

## 1198725 (kT*eA*kG*dA*dG*dT*dA*dT*dG*dT*dG*dG*e[5mC]*eA*kA*kT; antisense) [Compound 1198725]
[7]
  YAP1 (% UTC): 23 % UTC

## 1198417 (k[5mC]*dA*dG*dA*dT*dT*dT*dA*dG*dG*dA*kT*eG*k[5mC]*eA*kT; antisense) [Compound 1198417]
[8]
  YAP1 (% UTC): 40 % UTC

## 1197315 (kA*kA*k[5mC]*dT*mU*dT*dA*dA*dA*dG*dT*dG*dT*kA*kT*kG; antisense) [Compound 1197315]
[4]
  YAP1 (% UT): 116 % UT

## 1198510 (k[5mC]*kT*d[5mC]*dT*dT*dA*dT*dA*dT*dG*dG*eT*kT*eT*kT*eG; antisense) [Compound 1198510]
[9]
  YAP1 (% UTC): 8 % UTC

## 1198480 (antisense kT*kT*dT*dT*dA*d[5mC]*dA*dT*dT*dA*dG*eG*kA*eA*k[5mC]*eA) [Compound 1198480]
[1]
  YAP1 (% UTC): 75 % UTC

## 1198705 (kT*kA*dA*dG*dG*dT*dT*dT*d[5mC]*d[5mC]*d[5mC]*dA*kG*eA*kT*eT; antisense) [Compound 1198705]
[5]
  YAP1 (% UTC): 70 % UTC

## 1200871 (kG*kA*k[5mC]*dT*dA*mA*dG*dT*dA*dA*dG*dG*dT*kT*kT*k[5mC]; antisense) [Compound 1200871]
[3]
  YAP1 (% UT): 65 % UT

## 1198661 (antisense kT*kT*dG*dG*dA*dA*dG*dA*dT*d[5mC]*dT*dG*kA*eA*kA*e[5mC]) [Compound 1198661]
[10]
  YAP1 (% UTC): 111 % UTC

## 1198532 (kA*kA*d[5mC]*dT*dT*dT*dA*dA*dA*dG*dT*eG*kT*eA*kT*eG; antisense) [Compound 1198532]
[9]
  YAP1 (% UTC): 36 % UTC

## 1200848 (kA*kT*kA*dT*dT*mG*d[5mC]*dA*dA*dT*d[5mC]*dT*dG*kT*k[5mC]*kT; antisense) [Compound 1200848]
[3]
  YAP1 (% UT): 58 % UT

## 1198341 (k[5mC]*kA*kA*d[5mC]*dT*d[5mC]*dT*dT*dA*dT*dA*dT*kG*eG*kT*eT; antisense) [Compound 1198341]
[2]
  YAP1 (% UT): 90 % UT

## 1198827 (kT*kT*dA*d[5mC]*dA*dT*dT*dA*dG*dG*dA*kA*e[5mC]*kA*eA*kG; antisense) [Compound 1198827]
Table 46, Yap1 mRNA as percent of untreated control, SNU-449 cells, single dose
  YAP1 (% UT): 60 % UT

## 1198732 (kT*eA*kT*dA*dA*d[5mC]*dT*dG*dG*dG*d[5mC]*dA*eA*eA*kT*kT; antisense) [Compound 1198732]
[7]
  YAP1 (% UTC): 86 % UTC

## 1198453 (kG*dA*d[5mC]*dT*dA*dA*dG*dT*dA*dA*dG*kG*eT*kT*eT*k[5mC]; antisense) [Compound 1198453]
[8]
  YAP1 (% UTC): 48 % UTC

## 1198225 (k[5mC]*kA*d[5mC]*dT*dT*dT*dT*dA*d[5mC]*dA*dT*eT*eA*eG*kG*kA) [Compound 1198225]
[5]
  YAP1 (% UTC): 67 % UTC

## 1200791 (kA*kT*kG*dG*dA*mA*dA*dT*dT*dG*dT*d[5mC]*dT*k[5mC]*kA*kT; antisense) [Compound 1200791]
[3]
  YAP1 (% UT): 46 % UT

## 1197280 (kT*kG*kT*d[5mC]*mU*d[5mC]*dA*dT*dG*d[5mC]*d[5mC]*dT*dT*kA*kT*kA; antisense) [Compound 1197280]
[11]
  YAP1 (% UT): 53 % UT

## 1198879 (k[5mC]*kT*dT*dT*dA*dA*dA*dG*dT*dG*dT*kA*eT*kG*eT*k[5mC]; antisense) [Compound 1198879]
[6]
  YAP1 (% UT): 29 % UT

## 1197242 (antisense k[5mC]*kA*k[5mC]*dT*mG*dA*dG*dG*dT*dA*dT*dA*dA*k[5mC]*kT*kG) [Compound 1197242]
[4]
  YAP1 (% UT): 46 % UT

## 1200829 (kA*kG*kG*dA*dT*mG*d[5mC]*dA*dT*dG*dG*dT*dT*kT*kT*kT; antisense) [Compound 1200829]
[3]
  YAP1 (% UT): 49 % UT

## 1198933 (kT*kT*dT*dA*dG*dG*dA*dT*dG*d[5mC]*dA*kT*dG*kG*dT*kT; antisense) [Compound 1198933]
Table 45, Yap1 mRNA as percent of untreated control, SNU-449 cells, single dose
  YAP1 (% UTC): 69 % UTC

## 1076439 (k[5mC]*kT*kT*dA*dT*dA*dT*dG*dG*dT*dT*dT*dT*kG*kT*kG) [Compound 1076439]
[12]
  YAP1 (% UT): 31 % UT

## 1198235 (kT*kG*d[5mC]*dT*dT*dT*dG*dG*dA*dA*dG*eA*eT*e[5mC]*kT*kG) [Compound 1198235]
[5]
  YAP1 (% UTC): 49 % UTC

## 1198568 (antisense kA*k[5mC]*kT*dT*dT*dT*dA*d[5mC]*dA*dT*dT*dA*kG*kG*kA*eA) [Compound 1198568]
[2]
  YAP1 (% UT): 31 % UT

## 1197176 (antisense kT*kG*kT*d[5mC]*dT*d[5mC]*dA*dT*dG*d[5mC]*d[5mC]*dT*dT*kA*kT*kA) [Compound 1197176]
[6]
  YAP1 (% UT): 17 % UT

## 1198288 (kG*kA*kA*dA*dT*dT*dG*dT*d[5mC]*dT*d[5mC]*dA*kT*eG*k[5mC]*e[5mC]; antisense) [Compound 1198288]
[12]
  YAP1 (% UT): 10 % UT

## 1198718 (kG*eA*kA*dA*dT*dT*dG*dT*d[5mC]*dT*d[5mC]*dA*eT*eG*k[5mC]*k[5mC]; antisense) [Compound 1198718]
[7]
  YAP1 (% UTC): 9 % UTC

## 1198279 (k[5mC]*kT*dA*dA*dG*dT*dA*dA*dG*dG*dT*eT*eT*e[5mC]*k[5mC]*k[5mC]; antisense) [Compound 1198279]
[1]
  YAP1 (% UTC): 43 % UTC

## 1198595 (antisense kT*k[5mC]*kT*dT*dA*dT*dA*dT*dG*dG*dT*dT*kT*kT*kG*eT) [Compound 1198595]
[11]
  YAP1 (% UT): 27 % UT

## 1198690 (antisense kT*kA*dA*dT*dA*dT*dT*dG*d[5mC]*dA*dA*dT*k[5mC]*eT*kG*eT) [Compound 1198690]
[10]
  YAP1 (% UTC): 64 % UTC

## 1198636 (kA*kT*dA*dT*dG*dG*dA*dA*dA*dT*dT*dG*kT*e[5mC]*kT*e[5mC]; antisense) [Compound 1198636]
[10]
  YAP1 (% UTC): 41 % UTC

## 1198431 (kA*dA*dT*dA*dT*dT*dG*d[5mC]*dA*dA*dT*k[5mC]*eT*kG*eT*k[5mC]; antisense) [Compound 1198431]
[8]
  YAP1 (% UTC): 35 % UTC

## 1200806 (kT*kG*kA*dG*dG*mU*dA*dT*dA*dA*d[5mC]*dT*dG*kG*kG*k[5mC]; antisense) [Compound 1200806]
[3]
  YAP1 (% UT): 24 % UT

## 1198358 (kT*kT*kT*dA*dA*dA*dG*dT*dG*dT*dA*dT*kG*eT*k[5mC]*eA; antisense) [Compound 1198358]
[2]
  YAP1 (% UT): 15 % UT

## 1198379 (kA*dG*dT*dA*dT*dG*dT*dG*dG*d[5mC]*dA*kA*eT*kA*eA*kT) [Compound 1198379]
[8]
  YAP1 (% UTC): 45 % UTC

## 1198682 (antisense k[5mC]*kT*d[5mC]*dT*dT*dA*dT*dA*dT*dG*dG*dT*kT*eT*kT*eG) [Compound 1198682]
[5]
  YAP1 (% UTC): 25 % UTC

## 1198710 (kA*k[5mC]*dT*dA*dA*dG*dT*dA*dA*dG*dG*dT*kT*eT*k[5mC]*e[5mC]; antisense) [Compound 1198710]
[5]
  YAP1 (% UTC): 51 % UTC

## 1197229 (antisense kG*kG*kA*dA*mA*dT*dT*dG*dT*d[5mC]*dT*d[5mC]*dA*kT*kG*k[5mC]) [Compound 1197229]
[11]
  YAP1 (% UT): 21 % UT

## 1198873 (kA*kG*dT*dG*dT*dA*dT*dG*dT*d[5mC]*dA*kG*eA*kA*eG*kA; antisense) [Compound 1198873]
[6]
  YAP1 (% UT): 4 % UT

## 1198533 (kT*kA*dA*dG*dG*dT*dT*dT*d[5mC]*d[5mC]*d[5mC]*eA*kG*eA*kT*eT; antisense) [Compound 1198533]
[9]
  YAP1 (% UTC): 35 % UTC

## 1009397 (kA*kA*k[5mC]*dA*d[5mC]*dT*dG*dA*dG*dG*dT*dA*dT*kA*kA*k[5mC]; antisense) [Compound 1009397]
[12]
  YAP1 (% UT): 44 % UT
